Source: patent US20090270442A1, “POLYMORPHS OF HYDROCHLORIDE SALT OF 5-(3-(ETHYLSULFONYL)PHENYL)-3,8-DIMETHYL-N-(1-METHYLPIPERIDIN-4-YL)-9H-PYRIDO[2,3-B]INDOLE-7-CARBOXAMIDE AND METHODS OF USE THEREFOR” (TAKEDA PHARMACEUTICAL COMPANY LIMITED, priority 2008, published 2009)
Values after ≈ are worked out from the molar mass of the structure shown. Where two headings read alike, the source gives them in different places.

Experiments:
Assay type in all cases: physicochemical
[1] = Solvent screen: solubility of Compound 1 in various solvents (Table 16)
Experimental: Compound 1 as prepared by the method described in Example I may be used as the starting material for preparation of other polymorphic forms. The methods for testing the solubility of Compound 1 are described in Example 3, and the solubilities of Compound 1 in various solvents are summarized in Table 16. […] A solubility study of Compound 1 in various solvents was executed to select appropriate solvents for the further crystallizations. The material was placed in vials and the solvent was added in 250 μL portions. Solvents were picked based on differences in polarity and functionality and on their classification according to the International Conference on Harmonization (ICH), with preferences given to class II and class III solvents. After each addition of solvent, the vials were visually inspected for residual solids, and further heating to 55° C. to ensure dissolution.

[2] = Drying study of Form A under vacuum at 40-85° C., XRPD and OVI (Table 39)
Experimental: Approximately 100 mg of sample was weighed into an individual 20-mL headspace vial and 5 mL of DMSO added. The vial was then sealed and gentle shaking/vortexing was used to ensure sample was entirely dissolved. Blank samples were prepared by transferring 5.0 mL of DMSO into a 20-mL headspace vial and then sealed. Standards were prepared using stock solutions in DMSO. Compound 1 (4.08 g, Form A) was dried under vacuum at 40° C. overnight. A small sample (˜200 mg) was taken for XRPD and OVI tests. The rest of the material was further dried under vacuum at 55° C. overnight. A second sample (˜200 mg) was taken for XRPD and OVI tests. The oven temperature was increased to 70° C. and the material was further dried under vacuum at 70° C. overnight. A third sample (˜200 mg) was taken for XRPD and OVI tests. The oven temperature was then increased to 85° C. and the material was further dried under vacuum over weekend. Analysis by XRPD and OVI was completed as shown in Table 39 along with experimental details.

[3] = Karl Fischer analysis (KF), water content; details: for water content by KF: theoretical for a monohydrate 3.2%
Experimental: Water content was determined by adding solid sample to the instrument with HYDRANAL-Coulomat AD. Micrograms of water were determined by coulometric titration.

[4] = Humidity chamber study at 0% and 95% RH, one week, XRPD and KF (Table 38); details: ambient temperature
Experimental: The 0% RH chamber was prepared with drierite and the 95% RH chamber was made with a saturated solution of Na2HPO4.12H2O in DI water. The chambers were equilibrated for >1 week prior to introducing samples. Samples were placed in Teflon-lined caps for scintillation vials and allowed to equilibrate for one week then analyzed by XRPD and KF to determine form and water content.
FIG. 60 summarizes the conversion of the forms of Compound 1 observed from slurry and humidity chamber studies.

[5] = Moisture-sorption analysis (adsorption/desorption, then drying 1 h at 80° C. and XRPD) (Table 40); details: for XRPD pattern after drying: dried for one hour at 80° C.
Experimental: Moisture-sorption experiments were carried out on three forms by first drying the sample at 0% RH and 25° C. until an equilibrium weight was reached or for a maximum of four hours. The sample was then subjected to an isothermal (25° C.) adsorption scan from 10 to 90% RH in steps of 10%. The sample was allowed to equilibrate to an asymptotic weight at each point for a maximum of four hours. Following adsorption, a desorption scan from […] to 0% RH (at 25° C.) was run in steps of −10%, again allowing a maximum of four hours for equilibration to an asymptotic weight. The sample was then dried for one hour at 80° C. and the resulting solid analyzed by XRPD.

[6] = Solubility study of Form A in DI water and 20 mM phosphate buffer (pH 3.2) (Table 37); details: for pH (final, 1 week): supernatant after 1 week slurry; for solubility at 1 day: read-out: Solubility mg/mL (1 day); for solubility at 1 week: read-out: Solubility mg/mL (1 week)
Experimental: The solubility measurement of Compound 1 Form A was performed in DI water (Milli-Q) and in 20 mM phosphate buffer (pH 3.2), see Table 37. Each vial was charged with 50-55 mg of Compound 1 and 1 mL of the corresponding solvent.
Both slurries were stirred at room temperature for approximately 19 hours. An aliquot (0.2 mL) was taken from each sample for the solubility determination and XRPD test. […] Both slurries were allowed to stir for an additional 6 days at room temperature. The pH of the supernatant liquid and solubility were determined following the 1 week slurry.

[7] = MeCN/water slurry experiments of Forms A and C at ambient temperature (Table 35); details: MeCN/water at different ratios
Experimental: Slurry experiments of Compound 1, Forms A and C, were conducted in mixtures of MeCN and water. Each vial was charged with approximately 40 mg of Compound 1 (pure Form A, pure Form C, or 50:50 mixtures) and 2 mL of MeCN/water mixture in a 1:9, 1:1, and 9:1 ratio. […] All samples were stirred at room temperature for approximately 24 hours. An aliquot (1 mL) of the suspension was taken from the slurries (samples #1, 3, 4, 6, 7 and 9) for determination of form by XRPD. All aliquots were filtered and dried in vacuo at 30 mm Hg and ambient temperature. All samples were stirred at ambient temperature for an additional six days, filtered, dried, and again the solid form and filterability were determined.

[8] = 1 week slurry experiments in water, IPA, EtOAc, MeCN, EtOH and dioxane, form by XRPD (Table 34); details: for form after slurry in non-aqueous solvents: solvents other than water; for form after slurry in non-aqueous solvents / form isolated after slurry in water: room temperature, one week; for Form (1 wk): RT, resulting form by XRPD
Experimental: Each vial was charged with approximately 25-30 mg of API and 1 mL of the corresponding solvent, followed by stirring at room temperature for one week. […] The obtained solids were isolated by filtration, dried under vacuum at room temperature and analyzed by XRPD.

[9] = 20 mM phosphate buffer slurry, room temperature
[10] = DI water slurry, room temperature

CCS(=O)(=O)c1cccc(-c2cc(C(=O)NC3CCN(C)CC3)c(C)c3[nH]c4ncc(C)cc4c23)c1.Cl [Compound 1, 5-(3-(ethylsulfonyl)phenyl)-3,8-dimethyl-N-(1-methylpiperidin-4-yl)-9H-pyrido[2,3-b]indole-7-carboxamide hydrochloride]
solubility ([1]; 55 °C, thermodynamic from solid, solvent water, Temp 55, Soluble No, read-out: Conc.): ≤ 600 µg/mL | solubility ([1]; in acetone, MeCN, MTBe, EtOAc, IPAc, IPA, THF, 2-Me-THF, DCM, MEK, cyclohexane, heptane and water): Poor solubility | solubility ([1]; in dioxane, MeOH, DMF, DMA, NMP, AcOH and EtOH): Good solubility | Soluble ([1]; solvent 2-Me-THF, 0.4 mg/mL, Temp 55): No | Conc. ([1]; solvent 2-Me-THF, Temp 55, Soluble No): 400 µg/mL | Soluble ([1]; solvent AcOH, >9.2 mg/mL, Temp RT): Yes | Conc. ([1]; solvent AcOH, Temp RT, Soluble Yes): >9200 µg/mL | Soluble ([1]; solvent Acetone, 0.3 mg/mL, Temp 55): No | Conc. ([1]; solvent Acetone, Temp 55, Soluble No): 300 µg/mL | Soluble ([1]; solvent Chloroform, >8.4 mg/mL, Temp RT): Yes | Conc. ([1]; solvent Chloroform, Temp RT, Soluble Yes): >8400 µg/mL | Soluble ([1]; solvent DCM, 0.8 mg/mL, Temp RT): No | Conc. ([1]; solvent DCM, Temp RT, Soluble No): 800 µg/mL | Soluble ([1]; solvent DMA, >9.2 mg/mL, Temp RT): Yes | Conc. ([1]; solvent DMA, Temp RT, Soluble Yes): >9200 µg/mL | Soluble ([1]; solvent DMF, >10.4 mg/mL, Temp RT): Yes | Conc. ([1]; solvent DMF, Temp RT, Soluble Yes): >10400 µg/mL | Soluble ([1]; solvent Dioxane, 0.7 mg/mL, Temp 55): Yes | Conc. ([1]; solvent Dioxane, Temp 55, Soluble Yes): 700 µg/mL | Soluble ([1]; solvent EtOAc, 0.4 mg/mL, Temp 55): No | Conc. ([1]; solvent EtOAc, Temp 55, Soluble No): 400 µg/mL | Soluble ([1]; solvent EtOH, 1.2 mg/mL, Temp 55): Yes | Conc. ([1]; solvent EtOH, Temp 55, Soluble Yes): 1200 µg/mL | Soluble ([1]; solvent Heptane, 0.4 mg/mL, Temp 55): No | Conc. ([1]; solvent Heptane, Temp 55, Soluble No): 400 µg/mL | Soluble ([1]; solvent IPA, 0.5 mg/mL, Temp 55): No | Conc. ([1]; solvent IPA, Temp 55, Soluble No): 500 µg/mL | Soluble ([1]; solvent IPAC, 0.5 mg/mL, Temp 55): No | Conc. ([1]; solvent IPAC, Temp 55, Soluble No): 500 µg/mL | Soluble ([1]; solvent MEK, 0.6 mg/mL, Temp 55): No | Conc. ([1]; solvent MEK, Temp 55, Soluble No): 600 µg/mL | Soluble ([1]; solvent MTBE, 0.3 mg/mL, Temp 55): No | Conc. ([1]; solvent MTBE, Temp 55, Soluble No): 300 µg/mL | Soluble ([1]; solvent MeCN, 0.5 mg/mL, Temp 55): No | Conc. ([1]; solvent MeCN, Temp 55, Soluble No): 500 µg/mL | Soluble ([1]; solvent MeOH, >10.0 mg/mL, Temp RT): Yes | Conc. ([1]; solvent MeOH, Temp RT, Soluble Yes): >10000 µg/mL | Soluble ([1]; solvent NMP, >10.4 mg/mL, Temp RT): Yes | Conc. ([1]; solvent NMP, Temp RT, Soluble Yes): >10400 µg/mL | Soluble ([1]; solvent THF, 0.4 mg/mL, Temp 55): No | Conc. ([1]; solvent THF, Temp 55, Soluble No): 400 µg/mL | Soluble ([1]; solvent Toluene, 0.4 mg/mL, Temp 55): No | Conc. ([1]; solvent Toluene, Temp 55, Soluble No): 400 µg/mL | Soluble ([1]; solvent c-Hexane, 0.5 mg/mL, Temp 55): No | Conc. ([1]; solvent c-Hexane, Temp 55, Soluble No): 500 µg/mL | Soluble ([1]; solvent water, 0.6 mg/mL, Temp 55): No

CCS(=O)(=O)c1cccc(-c2cc(C(=O)NC3CCN(C)CC3)c(C)c3[nH]c4ncc(C)cc4c23)c1 [Form A]
Residual Amt of MeCN by OVI (ppm) ([2]; dried under vacuum at 40° C., time at temperature 16): 1353 ppm | Residual Amt of MeCN by OVI (ppm) ([2]; dried under vacuum at 55° C., time at temperature 24 (total 40)): 1303 ppm | Residual Amt of MeCN by OVI (ppm) ([2]; dried under vacuum at 70° C., time at temperature 24 (total 64)): 1113 ppm | Residual Amt of MeCN by OVI (ppm) ([2]; dried under vacuum at 85° C., time at temperature 72 (total 136)): 670 ppm | water content by KF after heating ([3]; another sample, after heating): 3.0% | water content by KF before heating ([3]; another sample, before heating): 3.1% | water content by KF [3]: 3.7% | change in form upon humidity exposure ([4]; 0 and 95% RH for one week): did not show a change in form | stability of the hydrate over relative humidity (moisture sorption curve) ([5]; 25° C.): stable from 5 to 90% RH | maximum moisture uptake ([5]; at 90% RH, 25° C.): 4.2 wt % | XRPD pattern after drying [5]: consistent with Form A | XRPD (1 week) [6, 9]: Form A | XRPD (1 day) [6, 9]: Form A | pH (final, 1 week) ([6]; 20 mM phosphate buffer): 3.3 | solubility ([6]; DI water and 20 mM phosphate buffer (pH 3.2), thermodynamic from solid, DI water and phosphate buffer slurries, after equilibration overnight and 1 week, room temperature): 3000 to 4000 µg/mL (≈ 5.94 to 7.93 mM) | XRPD (1 week) [6, 10]: Form A | XRPD (1 day) [6, 10]: Form A | pH (final, 1 week) ([6]; DI water): 5.0 | solubility at 1 day ([6]; aqueous buffer, thermodynamic from solid, 20 mM phosphate buffer, initial pH 3.2, room temperature): 3.3 mg/mL (≈ 6.54 mM) | solubility at 1 week ([6]; pH 3.2, aqueous buffer, thermodynamic from solid, 20 mM phosphate buffer, room temperature): 4.1 mg/mL (≈ 8.12 mM) | solubility at 1 week ([6]; pH 8.1, thermodynamic from solid, DI water, room temperature): 4.3 mg/mL (≈ 8.52 mM) | solubility at 1 day ([6]; thermodynamic from solid, DI water, initial pH 8.1, room temperature): 3.1 mg/mL (≈ 6.14 mM)

CCS(=O)(=O)c1cccc(-c2cc(C(=O)NC3CCN(C)CC3)c(C)c3[nH]c4ncc(C)cc4c23)c1 [Form C]
form after acetonitrile/water slurries [7]: converted to the monohydrate Form A | form after slurry in non-aqueous solvents [8]: stable anhydrate form in non-aqueous environments | form isolated after slurry in water [8]: converted to the monohydrate Form A | water content by KF [3]: 1.4% | form after humidity exposure ([4]; 95% RH for one week): converted to Form A | hygroscopicity (moisture sorption curve) ([5]; 25° C.): slightly hygroscopic | hysteresis upon desorption ([5]; 25° C.): not observed | maximum water uptake ([5]; at 90% RH, 25° C.): 1.9% | XRPD pattern after drying [5]: consistent to the starting form

CCS(=O)(=O)c1cccc(-c2cc(C(=O)NC3CCN(C)CC3)c(C)c3[nH]c4ncc(C)cc4c23)c1 [Form L]
form after slurry in non-aqueous solvents [8]: to the anhydrate Form C | form isolated after slurry in water [8]: convert to the monohydrate Form A | water content by KF [3]: 2.9% | hygroscopicity (moisture sorption curve) ([5]; 25° C.): moderately hygroscopic | hysteresis upon desorption ([5]; 25° C.): not observed | maximum water uptake ([5]; at 90% RH, 25° C.): 3.9% | XRPD pattern after drying [5]: same pattern before and after drying

CCS(=O)(=O)c1cccc(-c2cc(C(=O)NC3CCN(C)CC3)c(C)c3[nH]c4ncc(C)cc4c23)c1 [Form N]
Form (1 wk) ([8]; 1 week slurry in Dioxane (1.0 mL)): C + P | Form (1 wk) ([8]; 1 week slurry in EtOAc (1.0 mL)): C + P | Form (1 wk) ([8]; 1 week slurry in IPA (1.0 mL)): C + P | form isolated after slurry in water [8]: Form A
